Laboratory results from patent US8507464B2, “Phosphoramidate alkylator prodrugs” (Threshold Pharmaceuticals, Inc., priority 2005, dated 2013).
Read-outs that look alike come from different tables or passages of the source.

What was measured:
[1] = system: NCI-H460 cells; experiment: Antiproliferation assay (Alamar Blue), anoxia vs air
[2] = system: NCI-H460 cells; experiment: Antiproliferation assay - oxygen dependence; type: cell-based, human
Description: . […] The calculated IC50 values (μM) are tabulated in Table Y1 (H460 cells) or Table Y2 (HT29 cells) below.

[3] = type: physicochemical; conditions: glassy carbon, Ag/AgCl reference; for Reduction Potentials, 10,000 mV/sec: scan rate 10,000 mV/sec
[4] = system: H460 cell line; experiment: Anti-proliferation assay, hypoxia vs normoxia (Table 1A); conditions: for IC50: Homo sapiens; for HCR P: ratio of IC50 in normoxia and hypoxia
[5] = Homo sapiens, NCI-H460, 2 h, read-out: IC50 H460 Air, air, 2 h exposure
[6] = Homo sapiens, NCI-H460, 2 h, read-out: IC50 H460 Anoxia, anoxia, 2 h exposure
[7] = Homo sapiens, NCI-H460, read-out: IC50 in H460 cells, 0.6% O2
[8] = Homo sapiens, NCI-H460; read-out: IC50 in H460 cells, Air
[9] = Homo sapiens, NCI-H460; read-out: IC50 in H460 cells, N2
[10] = Homo sapiens, NCI-H460, read-out: IC50 in H460 cells, Air
[11] = Homo sapiens, NCI-H460, read-out: IC50 in H460 cells, N2
[12] = read-out: IC50 H460 Air, air, 2 h exposure
[13] = read-out: IC50 H460 Anoxia, anoxia, 2 h exposure
[14] = Air; read-out: IC50 in H460 cells, Air
[15] = N2; read-out: IC50 in H460 cells, N2
[16] = read-out: IC50 in H460 cells, 0.6% O2
[17] = NCI-H460, read-out: Hypoxia P (proliferation IC50)
[18] = NCI-H460, read-out: Normoxia P (proliferation IC50)

| Structure (SMILES) | IC50 [1, 5] [µM] | IC50 [1, 6] [µM] | IC50 [2, 7] [µM] | IC50 [2, 10] [µM] | IC50 [2, 11] [µM] | also measured |
| --- | --- | --- | --- | --- | --- | --- |
| COc1cc(COP(=O)(N[C@H](C)CCl)N[C@H](C)CCl)ccc1OCc1cnc([N+](=O)[O-])n1C [Compound 54] | 60 | 1 | 30 |  |  | IC50 [2, 8]: 60 µM; IC50 [2, 9]: 1 µM |
| O=[N+]([O-])c1ccc(-c2ccc(COP(=O)(NCCBr)NCCBr)cc2)o1 [Compound 55] | 12 | 5 | 8 | 12 | 5 |  |
| COc1cc(COP(=O)(NCCBr)NCCBr)ccc1OCc1cnc([N+](=O)[O-])n1C [Compound 56] | 10 | 0.5 | 8 | 10 | 0.5 |  |
| CC(OP(=O)(NCCBr)NCCBr)c1ccc(OCc2cnc([N+](=O)[O-])n2C)c([N+](=O)[O-])c1 (stereo not shown) [Compound 61] |  |  |  |  |  | IC50 [1, 12]: 4 µM; IC50 [1, 13]: 0.3 µM; IC50 [2, 14]: 4 µM; IC50 [2, 15]: 0.3 µM; IC50 [2, 16]: 4 µM |
| CCN(CCOP(=O)(NCCBr)NCCBr)C(=O)OCc1cnc([N+](=O)[O-])n1C [Compound 62] | 45 | 2 | 30 | 45 | 2 |  |
| O=[N+]([O-])c1cnc(-c2ccc(COP(=O)(NCCBr)NCCBr)cc2)s1 [Compound 63] | 8 | 1 | 15 | 8 | 1 |  |
| C[C@H](CBr)NP(=O)(N[C@H](C)CBr)OCc1cnc([N+](=O)[O-])n1C [Compound 66] |  |  |  |  |  | IC50 ([1]; read-out: IC50 H460 Anoxia): 0.3 µM; IC50 [2, 16]: 20 µM; IC50 ([2]; read-out: IC50 in H460 cells, N2): 0.3 µM |
| CC(OP(=O)(NCCBr)NCCBr)c1ccc([N+](=O)[O-])cc1 (stereo not shown) [Compound 78] | > 100 | > 100 |  |  |  | Reduction Potentials, 100 mV/sec ([3]; scan rate 100 mV/sec): −704 mV; Reduction Potentials, 10,000 mV/sec [3]: −746 mV |
| CCCn1c(COP(=O)(NCCBr)NCCBr)cnc1[N+](=O)[O-] [Compound 84] | 40 | 0.003 | 3 | 40 |  |  |
| N#Cc1cc(C#CCOP(=O)(NCCBr)NCCBr)sc1[N+](=O)[O-] [Compound 98] |  |  |  |  |  | IC50 [1, 12]: 2 µM; IC50 [1, 13]: 0.1 µM; IC50 [2, 14]: 2 µM; IC50 [2, 16]: 0.5 µM |
| CC#Cc1cc(COP(=O)(NCCBr)NCCBr)sc1[N+](=O)[O-] [Compound 99] |  |  |  |  |  | IC50 [1, 12]: 1 µM; IC50 [1, 13]: 0.1 µM; IC50 [2, 14]: 1 µM; IC50 [2, 16]: 0.5 µM |
| Cc1csc(C(C)OP(=O)(NCCCl)NCCCl)c1[N+](=O)[O-] (stereo not shown) [Compound 100] |  |  |  |  |  | IC50 [1, 12]: 35 µM; IC50 [1, 13]: 0.5 µM; IC50 [2, 14]: 35 µM; IC50 [2, 15]: 0.5 µM; IC50 [2, 16]: 10 µM |
| Cc1csc(C(C)OP(=O)(NCCBr)NCCBr)c1[N+](=O)[O-] (stereo not shown) [Compound 103] |  |  |  |  |  | IC50 [1, 12]: 2 µM; IC50 [1, 13]: 0.02 µM; Reduction Potentials, 10,000 mV/sec [3]: −756 mV |
| O=[N+]([O-])c1ccc(COP(=O)(NCCOS(=O)(=O)c2ccccc2)NCCOS(=O)(=O)c2ccccc2)o1 [Compound 106] |  |  | 0.7 |  |  | IC50 ([1]; Homo sapiens, NCI-H460, 2 h, read-out: IC50 H460 Air): 3.5 µM; IC50 ([1]; Homo sapiens, NCI-H460, 2 h, read-out: IC50 H460 Anoxia): 0.09 µM; IC50 [2, 8]: 4 µM; IC50 [2, 9]: 0.1 µM |
| O=[N+]([O-])c1ccc(COP2(=O)N(CCBr)CCN2CCBr)o1 [Compound 109] | 13 | 0.3 | 10 | 15 | 0.3 |  |
| O=[N+]([O-])c1ccc(COP2(=O)N(CCBr)CCN2CCBr)s1 [Compound 110] | 21 | 0.3 | 3 | 25 | 0.3 |  |
| CC(C)(OP(N)(=O)N(CCCl)CCCl)c1ccc([N+](=O)[O-])cc1 (stereo not shown) [Compound 113] | ≥ 100 | 1 | > 100 | > 100 | 1 |  |
| CC(OP(N)(=O)N(CCCl)CCCl)c1cnc([N+](=O)[O-])n1C (stereo not shown) [Compound 114] | 80 | 1 | 5 | 80 | 1 |  |
| O=[N+]([O-])c1ccc(COP(=O)(N(CCCl)CCCl)N(CCCl)CCCl)o1 [Compound P22, reference compound] |  |  |  |  |  | IC50 [4, 17]: 4.5 µM; IC50 [4, 18]: 3.5 µM; HCR P [4]: ca. 1 |
| Cn1c([N+](=O)[O-])cnc1COc1ccc(COP(N)(=O)N(CCCl)CCCl)cc1 (stereo not shown) [Compound S1] |  |  |  |  |  | IC50 [4, 17]: > 40 µM; IC50 [4, 18]: > 100 µM; HCR P [4]: >3 |
| Cn1c(COP2(=O)N(CCCl)CCN2CCCl)cnc1[N+](=O)[O-] [Compound S2] |  |  |  |  |  | IC50 [4, 17]: 7 µM; IC50 [4, 18]: > 100 µM; HCR P [4]: >14 |
